Test results from ChEMBL document CHEMBL5113436, “WCK 4034: A promising oxazolidinone for treating gram positive infections” (Bioorg Med Chem Lett, 2022).
Converted amounts (≈) assume the structure as drawn.

Experiments:
Staphylococcus aureus [1] = assay: Antibacterial activity against Staphylococcus aureus Sta-5027 infected in Swiss mouse model of septicemia administered by oral route 1 h and 5 h post-infection; assay type: functional; conditions: Sta-5027, 168 h, time 7 day
Staphylococcus aureus [2] = assay: Antibacterial activity against methicillin-sensitive Staphylococcus aureus Sta-001 incubated for 18 hrs by CLSI protocol based two-fold serial agar dilution method; assay type: functional
Streptococcus pneumoniae = assay: Antibacterial activity against Streptococcus pneumoniae ATCC 49619 incubated for 18 hrs by CLSI protocol based two-fold serial agar dilution method; assay type: functional
Haemophilus influenzae = assay: Antibacterial activity against Haemophilus influenzae […] ATCC 35054 incubated for 18 hrs by CLSI protocol based two-fold serial agar dilution method; assay type: functional
Staphylococcus aureus [3] = assay: Antibacterial activity against methicillin-resistant Staphylococcus aureus Sta-032 incubated for 18 hrs by CLSI protocol based two-fold serial agar dilution method; assay type: functional
Staphylococcus aureus [4] = assay: Antibacterial activity against Linezolid-resistant Staphylococcus aureus Sta-5059 incubated for 18 hrs by CLSI protocol based two-fold serial agar dilution method; assay type: functional
Staphylococcus aureus [5] = assay: Antibacterial activity against Linezolid-resistant Staphylococcus aureus Sta-5060 incubated for 18 hrs by CLSI protocol based two-fold serial agar dilution method; assay type: functional
[6] = Clearance in Wistar rat at 30 mg/kg, iv; assay type: ADME, organism-based; conditions: Wistar, in vivo
[7] = Cmax in Wistar rat at 30 mg/kg, iv; assay type: ADME, organism-based; parameters: dose 30 mg/kg, route iv; conditions: in vivo
[8] = Cmax in Wistar rat at 15 mg/kg, iv; assay type: ADME, organism-based; parameters: dose 15 mg/kg, route iv; conditions: in vivo
[9] = Clearance in Beagle dog at 15 mg/kg, iv; assay type: ADME, organism-based, Canis lupus familiaris; conditions: in vivo
[10] = Volume of distribution in Wistar rat at 15 mg/kg, iv; assay type: ADME, organism-based; conditions: in vivo
[11] = Clearance in Wistar rat at 15 mg/kg, iv; assay type: ADME, organism-based; conditions: in vivo
[12] = AUC in Beagle dog at 15 mg/kg, iv; assay type: ADME, organism-based, Canis lupus familiaris; parameters: dose 15 mg/kg, route iv; conditions: in vivo
[13] = Cmax in Beagle dog at 15 mg/kg, iv; assay type: ADME, organism-based, Canis lupus familiaris; parameters: dose 15 mg/kg, route iv; conditions: in vivo
[14] = Terminal half life in Beagle dog at 15 mg/kg, iv; assay type: ADME, organism-based, Canis lupus familiaris; conditions: in vivo
[15] = AUC in Beagle dog at 15 mg/kg, iv; conditions: in vivo
[16] = Terminal half life in Wistar rat at 30 mg/kg, iv; assay type: ADME, organism-based; conditions: Wistar, in vivo, read-out: beta t1/2 (converted)
[17] = Volume of distribution in Wistar rat at 30 mg/kg, iv; assay type: ADME, organism-based; conditions: Wistar, in vivo, read-out: Vd
[18] = AUC in Wistar rat at 15 mg/kg, iv; assay type: ADME, organism-based; parameters: dose 15 mg/kg, route iv; conditions: in vivo

SMILES	ED50 (Staphylococcus aureus [1]) [mg/kg]	MIC (Staphylococcus aureus [2]) [µg/mL]	MIC (Streptococcus pneumoniae) [µg/mL]	MIC (Haemophilus influenzae) [µg/mL]	MIC (Staphylococcus aureus [3]) [µg/mL]	other results
CC(=O)NC[C@H]1CN(c2ccc(N3CCC4(CC3)OCC[S+]4[O-])c(F)c2)C(=O)O1 (stereo partly specified)	10	4 (≈ 9.4 µM)	2 (≈ 4.7 µM)	8 (≈ 18.8 µM)	4 (≈ 9.4 µM)	
CC(=O)NC[C@H]1CN(c2ccc(N3CCC4(CC3)OCC(C)O4)c(F)c2)C(=O)O1 (stereo partly specified)	> 20				8 (≈ 19.6 µM)	
CC(=O)NC[C@H]1CN(c2ccc(N3CCC4(CCO4)CC3)c(F)c2)C(=O)O1	20	16 (≈ 42.4 µM)	4 (≈ 10.6 µM)	> 16	6.25 (≈ 16.6 µM)	
CC(=O)NC[C@H]1CN(c2cc(F)c(N3CCC4(OCCO4)[C@H](F)C3)c(F)c2)C(=O)O1	2.5	8 (≈ 18.6 µM)	2 (≈ 4.66 µM)	16 (≈ 37.3 µM)	8 (≈ 18.6 µM)	MIC (Staphylococcus aureus [4]): > 8 µg/mL; MIC (Staphylococcus aureus [5]): > 8 µg/mL
CC(=O)NC[C@H]1CN(c2ccc(N3CCC4(CC3)SCCS4)c(F)c2)C(=O)O1	> 20	8 (≈ 18.8 µM)	2 (≈ 4.7 µM)	> 16	4 (≈ 9.4 µM)	
CC(=O)NC[C@H]1CN(c2ccc(N3CCCC4(C3)OCCO4)c(F)c2)C(=O)O1	5	4 (≈ 10.2 µM)	4 (≈ 10.2 µM)	16 (≈ 40.7 µM)	4 (≈ 10.2 µM)	
CC(=O)NC[C@H]1CN(c2ccc(N3CCC4(OCCO4)C(C)C3)c(F)c2)C(=O)O1 (stereo partly specified)		32 (≈ 78.5 µM)	8 (≈ 19.6 µM)	> 16	32 (≈ 78.5 µM)	
CC(=O)NC[C@H]1CN(c2ccc(N3CCC4(CC3)COCCO4)c(F)c2)C(=O)O1	> 10	4 (≈ 9.82 µM)	2 (≈ 4.91 µM)	> 16	4 (≈ 9.82 µM)	
CC(=O)NC[C@H]1CN(c2ccc(N3CCC4(OCCO4)C(F)C3)cc2)C(=O)O1 (stereo partly specified)	5	16 (≈ 40.7 µM)	4 (≈ 10.2 µM)	> 16	8 (≈ 20.3 µM)	
CC(=O)NC[C@H]1CN(c2cc(F)c(N3CCC4(OCCO4)[C@@H](F)C3)c(F)c2)C(=O)O1	2.5	2 (≈ 4.66 µM)	1 (≈ 2.33 µM)	> 16	2 (≈ 4.66 µM)	clearance [6]: 30.3 mL/min/kg; Cmax [7]: 10800 ng/mL; MIC (Staphylococcus aureus [4]): > 8 µg/mL; Cmax [8]: 2370 ng/mL; CL [9]: 1.7 mL/min/kg; Vd [10]: 0.4 L/kg; MIC (Staphylococcus aureus [5]): > 8 µg/mL; CL [11]: 220.3 mL/min/kg; AUC [12]: 6.9 µg·h/kg; Cmax [13]: 7100 ng/mL; beta t1/2 [14]: 4.01 h; AUC [15]: 135 µg·h/mL; half-life [16]: 7.1 h; Vd [17]: 9.66 L/kg; AUC [18]: 7.32 µg·h/kg
CC(=O)NC[C@H]1CN(c2ccc(N3CCC4(CC3)NCCO4)c(F)c2)C(=O)O1	20	2 (≈ 5.1 µM)	2 (≈ 5.1 µM)	8 (≈ 20.4 µM)	2 (≈ 5.1 µM)	
CS(=O)(=O)NC[C@H]1CN(c2ccc(N3CCC4(OCCO4)C(F)C3)c(F)c2)C(=O)O1 (stereo partly specified)	> 30	> 32	> 8	> 16	32 (≈ 71.5 µM)	
O=C1O[C@@H](Cn2ccnn2)CN1c1cc(F)c(N2CCC3(OCCO3)C(F)C2)c(F)c1 (stereo partly specified)		8 (≈ 18.2 µM)	2 (≈ 4.55 µM)	> 16	4 (≈ 9.1 µM)	
O=C1O[C@@H](Cn2ccnn2)CN1c1ccc(N2CCC3(OCCO3)C(F)C2)c(F)c1 (stereo partly specified)		16 (≈ 38 µM)	4 (≈ 9.49 µM)	> 16	3.12 (≈ 7.4 µM)	
